Test results taken from ChEMBL document CHEMBL5346916, “Discovery of acridine-based LSD1 inhibitors as immune activators targeting LSD1 in gastric cancer” (Eur J Med Chem, 2023).
Calls of active or inactive are those of the source. The calls are words filed in the database; no cut-off is given here.

Key:
[1] = biological target: T1, Lysine-specific histone demethylase 1A (Homo sapiens, UniProt O60341); experiment: Inhibition of recombinant LSD1 (unknown origin) expressed in Escherichia coli BL21(DE3) strain using H3K4me2 peptide as substrate incubated for 30 mins by fluorescence based analysis
[2] = biological target: T1, Lysine-specific histone demethylase 1A; experiment: Inhibition of recombinant LSD1 (unknown origin) expressed in Escherichia coli BL21(DE3) strain using H3K4me2 peptide as substrate at 10 uM incubated for 30 mins by fluorescence based analysis relative to control
[3] = system: BGC-823; experiment: Cytotoxicity against human BGC-823 cells co-cultured with T cells assessed as increase in CCR7 level at 2 uM measured after 5 days by Q-RT-PCR method; type: functional, cell-based; conditions: time 5.0 day
[4] = system: MFC; experiment: Downregulation of PD-L1 level in […] cells incubated for 5 days by Western blot analysis; type: functional, cell-based; conditions: dose 1-4 µM, time 5.0 day
[5] = biological target: T1, Lysine-specific histone demethylase 1A; experiment: Binding affinity to recombinant LSD1 (unknown origin) assessed as thermal stability at 4 uM by thermal shift assay
[6] = system: MFC; experiment: Antitumor activity against mouse MFC cells xenografted in 615 mouse model assessed as decrease in PD-L1 level administered as IG daily and measured every other day for 14 days by Western blot analysis; type: functional; conditions: dose 10-40 mg/kg, time 14.0 day
[7] = system: BGC-823; experiment: Downregulation of PD-L1 level in human BGC-823 cells incubated for 5 days by Western blot analysis; type: functional, cell-based; conditions: dose 1-4 µM, time 5.0 day
[8] = Toxicity in 615 mouse assessed as change in body weight at 10 to 40 mg/kg, IG administered daily and measured every other day for 14 days; type: organism-based; conditions: in vivo, po, 336 h, dose 10-40 mg/kg, time 14 day
[9] = system: BGC-823; experiment: Antimigratory activity against human BGC-823 cells assessed as reduction in cell migration at 1 to 4 uM measured after 24 to 48 hrs by wound healing assay; type: functional, cell-based; conditions: dose 1-4 µM, time 24-48 hrs
[10] = biological target: Programmed cell death protein 1/Programmed cell death 1 ligand 1 (Homo sapiens) (UniProt Q15116+Q9NZQ7); experiment: Inhibition of recombinant PD-1 binding to PD-L1 in human BGC-823 cells measured after 5 days by DAPI staining based confocal microscopy analysis; type: cell-based; conditions: dose 1-4 µM, time 5.0 day
[11] = system: BGC-823; experiment: Cytotoxicity against human BGC-823 cells co-cultured with T cells assessed as increase in IFN-gamma level at 2 uM measured after 5 days by Q-RT-PCR method; type: functional, cell-based; conditions: time 5.0 day
[12] = Cytotoxicity against […] cells at 2 uM incubated for 5 days by CCK-8 method relative to control; type: functional; conditions: time 5 day
[13] = system: BGC-823; experiment: Cytotoxicity against human BGC-823 cells co-cultured with T cells assessed as increase in 4-1BB level at 2 uM measured after 5 days by Q-RT-PCR method; type: functional, cell-based; conditions: time 5.0 day
[14] = Toxicity in 615 mouse assessed as at 10 to 40 mg/kg, IG kidney injury administered daily and measured every other day for 14 days; type: organism-based; conditions: in vivo, po, 336 h, dose 10-40 mg/kg, time 14 day
[15] = system: MFC; experiment: Antitumor activity against mouse MFC cells xenografted in 615 mouse model assessed as increase in IFN-gamma m-RNA level at 10 to 40 mg/kg, IG administered daily and measured every other day for 14 days; type: functional, organism-based; conditions: dose 10-40 mg/kg, time 14.0 day
[16] = system: MFC; experiment: Antitumor activity against mouse MFC cells xenografted in 615 mouse model assessed as increase in IL-2 m-RNA level at 10 to 40 mg/kg, IG administered daily and measured every other day for 14 days; type: functional, organism-based; conditions: dose 10-40 mg/kg, time 14.0 day
[17] = system: BGC-823; experiment: Inhibition of stemness in human BGC-823 cells assessed as inhibition of SOX2 expression at 1 to 4 uM measured after 5 days by Western blot analysis; type: functional, cell-based; conditions: dose 1-4 µM, time 5.0 day
[18] = system: MFC; experiment: Antitumor activity against mouse MFC cells xenografted in 615 mouse model assessed as reduction in tumor weight at 10 to 40 mg/kg, IG administered daily and measured every other day for 14 days […]; type: functional, organism-based; conditions: dose 10-40 mg/kg, time 14.0 day
[19] = system: BGC-823; experiment: Cytotoxicity against human BGC-823 cells co-cultured with T cells assessed as increase in TNF-alpha level at 2 uM measured after 5 days by Q-RT-PCR method; type: functional, cell-based; conditions: time 5.0 day
[20] = system: MFC; experiment: Downregulation of PD-L1 mRNA level in […] cells at 1 to 4 uM incubated for 5 days by Q-RT-PCR analysis; type: functional, cell-based; conditions: dose 1-4 µM, time 5.0 day
[21] = system: BGC-823; experiment: Downregulation of PD-L1 mRNA level in human BGC-823 cells at 1 to 4 uM incubated for 5 days by Q-RT-PCR analysis; type: functional, cell-based; conditions: dose 1-4 µM, time 5.0 day
[22] = system: BGC-823; experiment: Inhibition of stemness in human BGC-823 cells assessed as inhibition of OCT4 expression at 1 to 4 uM measured after 5 days by Western blot analysis; type: functional, cell-based; conditions: dose 1-4 µM, time 5.0 day
[23] = biological target: T1, Lysine-specific histone demethylase 1A; experiment: Inhibition of LSD1 in human BGC-823 cells assessed as suppression of H3K4me2 methylation measured after 5 days by Western blot analysis; type: cell-based; conditions: dose 1-4 µM, time 5.0 day
[24] = system: MFC; experiment: Antitumor activity against mouse MFC cells xenografted in 615 mouse model assessed as increase in TNF-alpha m-RNA level at 10 to 40 mg/kg, IG administered daily and measured every other day for 14 days; type: functional, organism-based; conditions: dose 10-40 mg/kg, time 14.0 day
[25] = Toxicity in 615 mouse assessed as at 10 to 40 mg/kg, IG liver injury administered daily and measured every other day for 14 days; type: organism-based; conditions: in vivo, po, 336 h, dose 10-40 mg/kg, time 14 day
[26] = system: BGC-823; experiment: Inhibition of stemness in human BGC-823 cells assessed as inhibition of CD44 expression at 1 to 4 uM measured after 5 days by Western blot analysis; type: functional, cell-based; conditions: dose 1-4 µM, time 5.0 day
[27] = system: BGC-823; experiment: Cytotoxicity against human BGC-823 cells co-cultured with T cells assessed as increase in IL-2 level at 2 uM measured after 5 days by Q-RT-PCR method; type: functional, cell-based; conditions: time 5.0 day
[28] = biological target: T1, Lysine-specific histone demethylase 1A; experiment: Inhibition of LSD1 (unknown origin) human BGC-823 cells assessed as suppression of H3K4me1 methylation measured after 5 days by Western blot analysis; type: cell-based; conditions: dose 1-4 µM, time 5.0 day
[29] = system: BGC-823; experiment: Cytotoxicity against human BGC-823 cells co-cultured with T cells assessed as reduction in cell viability measured after 5 days by CCK8 method; type: functional, cell-based; conditions: dose 1-4 µM, time 5.0 day
[30] = system: MFC; experiment: Antitumor activity against mouse MFC cells xenografted in 615 mouse model assessed as suppression in tumor growth administered as IG daily and measured every other day for 14 days by caliper method; type: functional; conditions: dose 10-40 mg/kg, time 14.0 day

Structure (SMILES): CN1CCN(c2ccc(Nc3c4ccccc4nc4ccc(Cl)cc34)cc2)CC1
- IC50 [1]: 0.28 µM
- inhibition [2]: 100%

Structure (SMILES): COc1ccc2c(Nc3ccc(N4CCN(C)CC4)cc3)c3ccccc3nc2c1
- IC50 [1]: 0.14 µM
- inhibition [2]: 100%

Structure (SMILES): Cc1cc2nc3ccccc3c(Nc3ccc(N4CCN(C)CC4)cc3)c2cc1C
- IC50 [1]: 0.085 µM
- inhibition [2]: 100%

Structure (SMILES): N#Cc1ccc(Nc2c3ccccc3nc3ccccc23)cc1
- inhibition [2]: 29.8%

Structure (SMILES): Nc1ccc(Oc2c3ccccc3nc3ccccc23)cc1
- IC50 [1]: 1.72 µM
- inhibition [2]: 100%

Structure (SMILES): Nc1ccc(Sc2c3ccccc3nc3ccccc23)cc1
- IC50 [1]: 0.97 µM
- inhibition [2]: 100%

Structure (SMILES): c1ccc2c(Nc3ccc(N4CCCCC4)cc3)c3ccccc3nc2c1
- inhibition [2]: 25%

Structure (SMILES): c1ccc2c(Nc3ccc(N4CCOCC4)cc3)c3ccccc3nc2c1
- IC50 [1]: 0.45 µM
- inhibition [2]: 100%

Structure (SMILES): CC(=O)Nc1ccc(Nc2c3ccccc3nc3ccccc23)cc1
- IC50 [1]: 3.54 µM
- inhibition [2]: 67.8%

Structure (SMILES): CCN1CCN(c2ccc(Nc3c4ccccc4nc4ccccc34)cc2)CC1
- IC50 [1]: 0.11 µM
- inhibition [2]: 100%

Structure (SMILES): Cc1ccc2nc3c(C)c(C)ccc3c(Nc3ccc(N4CCN(C)CC4)cc3)c2c1
- IC50 [1]: 0.1 µM
- inhibition [2]: 100%

Structure (SMILES): c1ccc2c(NCCN3CCOCC3)c3ccccc3nc2c1
- inhibition [2]: 22.4%

Structure (SMILES): Cc1ccc2cc(Nc3c4ccccc4nc4ccccc34)ccc2n1
- IC50 [1]: 3.86 µM
- inhibition [2]: 68.6%

Structure (SMILES): COc1ccc2nc3ccccc3c(Nc3ccc(N4CCN(C)CC4)cc3)c2c1
- IC50 [1]: 0.23 µM
- inhibition [2]: 100%

Structure (SMILES): c1ccc(CN2CCN(c3ccc(Nc4c5ccccc5nc5ccccc45)cc3)CC2)cc1
- IC50 [1]: 2.39 µM
- inhibition [2]: 97%

Structure (SMILES): c1ccc2c(Nc3ccc4c(c3)OCCO4)c3ccccc3nc2c1
- IC50 [1]: 0.85 µM
- inhibition [2]: 97.7%

Structure (SMILES): c1ccc(Nc2c3ccccc3nc3ccccc23)cc1
- IC50 [1]: 1.05 µM
- inhibition [2]: 99.2%

Structure (SMILES): Cc1ccc(Nc2c3ccccc3nc3ccccc23)cc1
- IC50 [1]: 3.62 µM
- inhibition [2]: 57.9%

Structure (SMILES): Cc1cnc(NS(=O)(=O)c2ccc(Nc3c4ccccc4nc4ccccc34)cc2)o1
- inhibition [2]: 19.2%

Structure (SMILES): c1ccc2c(Nc3ccc(N4CCNCC4)cc3)c3ccccc3nc2c1
- IC50 [1]: 0.22 µM
- inhibition [2]: 100%

Structure (SMILES): Fc1ccc(C(c2ccc(F)cc2)N2CCN(c3ccc(Nc4c5ccccc5nc5ccccc45)cc3)CC2)cc1
- IC50 [1]: 0.71 µM
- inhibition [2]: 68.1%

Structure (SMILES): O=C1COCCN1c1ccc(Nc2c3ccccc3nc3ccccc23)cc1
- inhibition [2]: 41%

Structure (SMILES): CN1CCN(Cc2ccc(Nc3c4ccccc4nc4ccccc34)cc2)CC1
- inhibition [2]: 45.6%

Structure (SMILES): CSc1ccc(Nc2c3ccccc3nc3ccccc23)cc1
- IC50 [1]: 0.74 µM
- inhibition [2]: 79.7%

Structure (SMILES): COc1cc(NS(C)(=O)=O)ccc1Nc1c2ccccc2nc2ccccc12 [AMSACRINE]
- IC50 [1]: 0.88 µM
- inhibition [2]: 100%

Structure (SMILES): COc1ccc(Nc2c3ccccc3nc3ccccc23)cc1
- IC50 [1]: 1.16 µM
- inhibition [2]: 100%

Structure (SMILES): COc1cccc2c(Nc3ccc(N4CCN(C)CC4)cc3)c3ccccc3nc12
- IC50 [1]: 0.13 µM
- inhibition [2]: 100%

Structure (SMILES): CN1CCN(c2ccc(Nc3c4ccccc4nc4ccccc34)cc2)CC1
- Activity [3]: Active
- Activity [4]: Dose-Dependent Effect
- Activity [5]: Active
- Activity [6]: Dose-Dependent Effect
- Activity [7]: Dose-Dependent Effect
- Activity [8]: Toxic
- IC50 [1]: 0.073 µM
- Activity [9]: Active
- inhibition [10]: Dose-Dependent Effect
- Activity [11]: Active
- Activity [12]: <10%
- Activity [13]: Active
- Activity [14]: Non-Toxic
- Activity [15]: Active
- Activity [16]: Active
- inhibition [17]: Active
- Activity [18]: Active
- Activity [19]: Active
- Activity [20]: Active
- Activity [21]: Active
- inhibition [2]: 100%
- inhibition [22]: Active
- inhibition [23]: Dose-Dependent Effect
- Activity [24]: Active
- Activity [25]: Non-Toxic
- inhibition [26]: Active
- Activity [27]: Active
- inhibition [28]: Dose-Dependent Effect
- Activity [29]: Dose-Dependent Effect
- Activity [30]: Dose-Dependent Effect

Structure (SMILES): CC(C)c1ccc2nc3ccccc3c(Nc3ccc(N4CCN(C)CC4)cc3)c2c1
- IC50 [1]: 0.23 µM
- inhibition [2]: 100%

Structure (SMILES): CCn1c2ccccc2c2ccc(Nc3c4ccccc4nc4ccccc34)cc21
- IC50 [1]: 0.7 µM
- inhibition [2]: 97.2%

Structure (SMILES): CN1CCN(c2ccc(Nc3c4ccccc4nc4c(N(C)C)cccc34)cc2)CC1
- IC50 [1]: 6.03 µM
- inhibition [2]: 97%

Structure (SMILES): CC(C)c1ccc(Nc2c3ccccc3nc3ccccc23)cc1
- inhibition [2]: 43.4%

Structure (SMILES): c1ccc2c(NN3CCCCC3)c3ccccc3nc2c1
- IC50 [1]: 1.66 µM
- inhibition [2]: 95.3%

Structure (SMILES): Nc1ccc(Nc2c3ccccc3nc3ccccc23)cc1
- IC50 [1]: 0.6 µM
- inhibition [2]: 100%

Structure (SMILES): NS(=O)(=O)c1ccc(Nc2c3ccccc3nc3ccccc23)cc1
- inhibition [2]: 4.01%

Structure (SMILES): CS(=O)(=O)Nc1ccc(Nc2c3ccccc3nc3ccccc23)cc1
- IC50 [1]: 0.66 µM
- inhibition [2]: 100%

Structure (SMILES): Nc1ccccc1Nc1c2ccccc2nc2ccccc12
- IC50 [1]: 8.23 µM
- inhibition [2]: 100%
